{"source": "the supplement of paper PMC9663587", "key": {"[1]": {"compound": "CN(C)C(=O)c1cc2cnc(Nc3ccc(N4CCNCC4)cn3)nc2n1C1CCCC1 [LEE011/Ribociclib]", "assay": "increase in dead-cell fraction, 72 h; higher = more death;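 note: breast cancer cell lines in 384-well plates, stained with Hoechst plus LIVE/DEAD far red dye and imaged, cells above an LDR intensity threshold counted dead, Hoechst-negative corpses included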"}, "[2]": {"compound": "CN(C)C/C=C/C(=O)Nc1ccc(C(=O)N2CCC[C@@H](Nc3ncc(Cl)c(-c4c[nH]c5ccccc45)n3)C2)cc1 [THZ531]", "assay": "increase in dead-cell fraction, 72 h; higher = more death"}, "[3]": {"compound": "T1, CN(C)C/C=C/C(=O)Nc1ccc(C(=O)Nc2cccc(Nc3ncc(Cl)c(-c4c[nH]c5ccccc45)n3)c2)cc1 [THZ1]", "assay": "increase in dead-cell fraction, 72 h; higher = more death"}, "[4]": {"compound": "CN1CC[C@H](c2c(O)cc(O)c3c(=O)cc(-c4ccccc4Cl)oc23)[C@H](O)C1 [Flavopiridol]", "assay": "increase in dead-cell fraction, 72 h; higher = more death"}, "[5]": {"compound": "CCOc1cc2ncc(C#N)c(Nc3ccc(OCc4ccccn4)c(Cl)c3)c2cc1NC(=O)/C=C/CN(C)C [Neratinib/HKI272]", "assay": "GR value, 72 h; higher = faster growth (1 = untreated, <0 = killing);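 note: breast cancer and non-malignant breast epithelial lines, nine half-log doses, viable cells counted by Hoechst and LIVE/DEAD dye imaging versus time-zero plates and DMSO controls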"}, "[6]": {"compound": "T1, THZ1", "assay": "GR value, 72 h; higher = faster growth (1 = untreated, <0 = killing)"}}, "data": [{"cell line": "HCC1937", "values": [{"measurement": "increase in dead-cell fraction", "setting": "[1]; 0.001 µM", "value": -0.0088}, {"measurement": "increase in dead-cell fraction", "setting": "[1]; 0.003162 µM", "value": -0.0054}, {"measurement": "increase in dead-cell fraction", "setting": "[1]; 0.01 µM", "value": -0.0115}, {"measurement": "increase in dead-cell fraction", "setting": "[1]; 0.03162 µM", "value": -0.0122}, {"measurement": "increase in dead-cell fraction", "setting": "[1]; 0.1 µM", "value": -0.0012}, {"measurement": "increase in dead-cell fraction", "setting": "[1]; 0.3162 µM", "value": -0.0035}, {"measurement": "increase in dead-cell fraction", "setting": "[1]; 1 µM", "value": -0.0021}, {"measurement": "increase in dead-cell fraction", "setting": "[1]; 3.162 µM", "value": -0.0077}, {"measurement": "increase in dead-cell fraction", "setting": "[1]; 10 µM", "value": 0.0003}, {"measurement": "increase in dead-cell fraction", "setting": "[2]; 0.0001 µM", "value": 0.0017}, {"measurement": "increase in dead-cell fraction", "setting": "[2]; 0.0003162 µM", "value": 0.0017}, {"measurement": "increase in dead-cell fraction", "setting": "[2]; 0.001 µM", "value": 0.0043}, {"measurement": "increase in dead-cell fraction", "setting": "[2]; 0.003162 µM", "value": -0.0008}, {"measurement": "increase in dead-cell fraction", "setting": "[2]; 0.01 µM", "value": -0.0084}, {"measurement": "increase in dead-cell fraction", "setting": "[2]; 0.03162 µM", "value": -0.0082}, {"measurement": "increase in dead-cell fraction", "setting": "[2]; 0.1 µM", "value": 0.0051}, {"measurement": "increase in dead-cell fraction", "setting": "[2]; 0.3162 µM", "value": 0.0511}, {"measurement": "increase in dead-cell fraction", "setting": "[2]; 1 µM", "value": 0.0969}, {"measurement": "increase in dead-cell fraction", "setting": "[3]; 0.0001 µM", "value": -0.0003}, {"measurement": "increase in dead-cell fraction", "setting": "[3]; 0.0003162 µM", "value": -0.0027}, {"measurement": "increase in dead-cell fraction", "setting": "[3]; 0.001 µM", "value": -0.0105}, {"measurement": "increase in dead-cell fraction", "setting": "[3]; 0.003162 µM", "value": -0.0045}, {"measurement": "increase in dead-cell fraction", "setting": "[3]; 0.01 µM", "value": -0.0053}, {"measurement": "increase in dead-cell fraction", "setting": "[3]; 0.03162 µM", "value": -0.0002}, {"measurement": "increase in dead-cell fraction", "setting": "[3]; 0.1 µM", "value": 0.06}, {"measurement": "increase in dead-cell fraction", "setting": "[3]; 0.3162 µM", "value": 0.0438}, {"measurement": "increase in dead-cell fraction", "setting": "[3]; 1 µM", "value": 0.104}, {"measurement": "increase in dead-cell fraction", "setting": "[4]; 0.0001 µM", "value": -0.0009}, {"measurement": "increase in dead-cell fraction", "setting": "[4]; 0.0003162 µM", "value": -0.0013}, {"measurement": "increase in dead-cell fraction", "setting": "[4]; 0.001 µM", "value": -0.0022}, {"measurement": "increase in dead-cell fraction", "setting": "[4]; 0.003162 µM", "value": -0.0083}, {"measurement": "increase in dead-cell fraction", "setting": "[4]; 0.01 µM", "value": 0.0073}, {"measurement": "increase in dead-cell fraction", "setting": "[4]; 0.03162 µM", "value": 0}, {"measurement": "increase in dead-cell fraction", "setting": "[4]; 0.1 µM", "value": 0.0006}, {"measurement": "increase in dead-cell fraction", "setting": "[4]; 0.3162 µM", "value": 0.0316}, {"measurement": "increase in dead-cell fraction", "setting": "[4]; 1 µM", "value": 0.0846}, {"measurement": "GR value", "setting": "[5]; 0.0003162 µM", "value": 0.987, "unit": "GR"}, {"measurement": "GR value", "setting": "[5]; 0.001 µM", "value": 1.03, "unit": "GR"}, {"measurement": "GR value", "setting": "[5]; 0.003162 µM", "value": 0.951, "unit": "GR"}, {"measurement": "GR value", "setting": "[5]; 0.01 µM", "value": 0.945, "unit": "GR"}, {"measurement": "GR value", "setting": "[5]; 0.03162 µM", "value": 0.897, "unit": "GR"}, {"measurement": "GR value", "setting": "[5]; 0.1 µM", "value": 0.824, "unit": "GR"}, {"measurement": "GR value", "setting": "[5]; 0.3162 µM", "value": 0.735, "unit": "GR"}, {"measurement": "GR value", "setting": "[5]; 1 µM", "value": 0.633, "unit": "GR"}, {"measurement": "GR value", "setting": "[5]; 3.162 µM", "value": 0.295, "unit": "GR"}, {"measurement": "GR value", "setting": "[6]; 0.0001 µM", "value": 0.926, "unit": "GR"}, {"measurement": "GR value", "setting": "[6]; 0.0003162 µM", "value": 0.922, "unit": "GR"}, {"measurement": "GR value", "setting": "[6]; 0.001 µM", "value": 0.98, "unit": "GR"}, {"measurement": "GR value", "setting": "[6]; 0.003162 µM", "value": 1.05, "unit": "GR"}, {"measurement": "GR value", "setting": "[6]; 0.01 µM", "value": 1.14, "unit": "GR"}, {"measurement": "GR value", "setting": "[6]; 0.03162 µM", "value": 0.808, "unit": "GR"}, {"measurement": "GR value", "setting": "[6]; 0.1 µM", "value": 0.104, "unit": "GR"}, {"measurement": "GR value", "setting": "[6]; 0.3162 µM", "value": -0.107, "unit": "GR"}, {"measurement": "GR value", "setting": "[6]; 1 µM", "value": -0.38, "unit": "GR"}]}]}
